Experimental data taken from patent US9724312B2, “Agent for the prevention, improvement or treatment of retinal disease” (ROHTO PHARMACEUTICAL CO., LTD., priority 2012, dated 2017).

Assays:
[1] = system: mouse with retinal injury induced by ischemia; settings: oral administration; cited from earlier work
[2] = system: retinal detachment-induced animal; settings: intraperitoneal administration; cited from earlier work
[3] = system: rat models with glaucoma induced by NMDA; assay: Protective effect for retinal ganglion cells against nerve damage by NMDA (thickness of inner plexiform layer); assay type: in vivo; settings: once a day
Source text: In recent years the glutamate analogue NMDA (N-methyl-D-aspartate) has been widely reported to be one of causative agents of neurodegenerative diseases including Alzheimer's disease. In the ophthalmic field, NMDA is considered to be involved in optic nerve damage in glaucoma (Brain Research Bulletin, 81 (2010) 349-358). Accordingly, in this experiment rat models with glaucoma induced by NMDA were used to evaluate the neuroprotective effect of GGA.
To Sprague-Dawley (SD) rats, the all-trans form, the 5Z-mono-cis form and teprenone were separately pre-administered by oral administration (Test Example 1), intravitreal administration (Test Example 2) or ocular instillation administration (Test Example 3) and 5 μL of NMDA was administered into the vitreous body to induce nerve damage. For Test Example 2, a marketed therapeutic eye drop for glaucoma, AIPHAGAN (trade name), was intravitreally administered as a positive control once a day for five days. For each of Test Examples, a base not containing GGA or AIPHAGAN was administered as a control in the same manner as described above.
The dosage and regimen of Test Examples 1 to 3 are shown in Table 1 and the constitution of the base used in each tests are shown in Table 2.
Three days after administration of NMDA, the eyeballs were harvested, fixed with half Karnovsky's fixative for 24 hours, embedded in paraffin, thin sectioned and stained with hematoxylin-eosin (HE) to prepare histopathological sections. The histological sections were observed under an optical microscope and the thickness (μm) of the inner plexiform layer (IPL) of the retina was measured. From the thickness of the inner plexiform layer (IPL) of the retina, the neuroprotective effects of the test preparations were evaluated.

[4] = system: mouse with visual cell damage induced by light irradiation; settings: oral administration; cited from earlier work
[5] = system: multiple sclerosis mouse model; settings: oral administration; cited from earlier work
glaucoma rat model = settings: intraperitoneal administration; cited from earlier work
PC12 = assay: Protective effect against ischemic cell death induced by hypoxia and low glucose (Cell Titer-Glo cell viability); assay type: cell-based, rat; settings: 30 μM, 2 h pre-incubation, then low glucose/zero percent O2 8 h, FIG. 1, n=10, Tukey-Kramer
Source text: The progress of visual impairment in glaucoma is associated with retinal ganglion cell (RGC) death due to blood flow failure occurring near the optic nerve (Folia Pharmacol. Jpn. 128, 255-258 (2006)). With the use of PC12, which is a typical neural cell line established from rat adrenal […] pheochromocytoma and used also as a model cell for the functional evaluation of RGC (J Neurosci Res. 2000 May 15; 60(4): 495-503), the cytoprotective effect of GGA against ischemic cell death induced by hypoxia and low glucose was evaluated.
Test samples were prepared as follows. The test substances were four types of GGAs that contain the all-trans form and the 5Z-mono-cis form at a weight ratio of 10:0, 8:2, 6:4, and 0:10, respectively. […]
After 8 hours of incubation, 100 μL of an equivalent mixture of a cell viability detection reagent Cell Titer-Glo (Promega) and PBS was added to each well and the luminescence produced by the reaction with ATP in living cells was measured with a luminometer (GloMax; Promega). The cell viability was calculated from the measured luminescence by the following formula and the cytoprotective effect of GGA against oxidative stress by hydrogen peroxide was examined. Cell viability(%)=100×[(luminescence of base- or GGA-treated group)/(luminescence of non-treated group)]

[6] = Test Example 1: oral 800 mg/kg, 2 days, NMDA 4 mM, FIG. 6, Dunnett

Row | Compound | number of surviving retinal neurons [1] | apoptosis of visual cells [2] | expression of heat shock protein 70 [2] | neuroprotective effect against nerve damage by NMDA compared with base (IPL thickness) [3, 6] | induction of thioredoxin and heat shock protein 72 in the retinal pigment epithelium [4] | cell loss in the ganglion [5] | number of degenerating axons in the optic nerve [5] | visual function [5] | expression of heat shock protein 72 (glaucoma rat model) | retinal ganglion cell death and optic nerve damage (glaucoma rat model) | neuroprotective effect against nerve damage by NMDA compared with base (IPL thickness) ([3]; Test Example 2: intravitreal 0.05% w/v, 5 days, NMDA 40 mM, FIG. 7, Tukey-Kramer) | cytoprotective effect compared with GGA 6:4 (PC12)
1 | teprenone | significantly increased the number of surviving retinal neurons | reduced the apoptosis of visual cells significantly | induced the expression of heat shock protein 70 | did not show a significant neuroprotective effect | induced thioredoxin and heat shock protein 72 in the retinal pigment epithelium | prevented cell loss in the ganglion | reduced the number of degenerating axons in the optic nerve | improved the visual function | induced the expression of heat shock protein 72 | reduced retinal ganglion cell death and thereby ameliorated optic nerve damage | – | –
2 | CC(=O)CC/C=C(/C)CC/C=C(\C)CC/C=C(\C)CCC=C(C)C [5Z-mono-cis form, (5Z,9E,13E)-6,10,14,18-tetramethyl-5,9,13,17-nonadecatetrae n-2-one] | – | – | – | significant neuroprotective effects | – | – | – | – | – | – | significant neuroprotective effects | significantly higher cytoprotective effects
